In US12220461B2, “Polypeptide-coupled small molecule compound and antiviral application thereof” (Guangzhou Medical University, priority 2023, dated 2025):
pIC50: −log10 of the molar value. Starred links: 1 amine or outer side, 2 acyl side, 3 side chain; linkers in the order of their positions; H or OH if unused. Non-standard residues stand in square brackets, D forms with d. Residues, ends and D or L forms follow the SMILES beside them. ξ: configuration not given here. *: point of attachment. X1 = Cc1ccc(N[*:1])cc1C(=O)[*:2]; X2 = C[C@@H](N*)c1cccc2ccccc12; X3 = S=c1nc(N*)[nH]c2nc[nH]c12; ξR = N=C(N)NCCCC(N)C(=O)O; ξL = CC(C)CC(N)C(=O)O; ξS = NC(CO)C(=O)O

Columns and labels:
[1] = system: A549 cells, MLE-12 cells and 293T cells
[2] = target: T1, PLpro (Severe acute respiratory syndrome coronavirus 2, UniProt P0DTD1); experiment: cell-based; set-up: species or system SARS-CoV-2
T1 construct: expressed in transfected cells; host or cells: 293T cells

[3] = system: 293T cells; details: same concentration, 24 h
Procedure: 9.1 Plating: 293T cells in logarithmic growth phase are inoculated into a 96-well plate (100 μL/well), triplicate wells are made in each group, and the number of cells in each well is set at 5×10^3. The cells are put in a 5% CO2 incubator at 37° C. for 12 h.
The dosage concentrations are set to 100 μM, 50 μM, 25 μM, 12.5 μM, 6.25 μM and 3.125 μM, and the dosage volume is 2 μL. The control group is added with 2 μL DMSO. Then, they are put in a 5% CO2 incubator at 37° C. for culture.
9.3 After 24 hours, the cells are washed with PBS twice, and then added 100 μL of pre-mixed CCK8 solution (medium: CCK8 working solution=9:1) to each well to avoid introduction of bubbles in the operation. Culture is continued for 2 h in a 5 6% CO2 incubator at 37° C.
9.4 The absorbance D(λ) of each well at the wavelength of 450 nm is determined by the microplate reader. D(λ) values of the negative control group, the control group and the experimental group are analyzed to determine the cell activity. Cell viability reflects the cytotoxicity of the drug. The groups are as follows: • the experimental group (medium containing cells, CCK-8, the drug to be tested); • the control group (medium containing cells, CCK-8, without drug to be tested); and • the negative control group (medium without cells and the substance to be detected, with CCK-8).

[4] = system: SARS-CoV-2; format: cell-based

SMILES	cytotoxicity (CCK8 cell viability) [1]	pIC50 [2]	cytotoxicity (CCK8 cell viability) [3]	IC50 for inhibition of CPE induced by SARS-CoV-2 [4]
Cc1ccc(NC(=O)CNC(=O)CNC(=O)C(CCCNC(=N)N)NC(=O)C(CC(C)C)NC(=O)C(CCCNC(=N)N)NC(=O)C(N)CO)cc1C(=O)N[C@H](C)c1cccc2ccccc12 (some centres unmarked) [RG-17] (H-[ξS][ξR][ξL][ξR]GG[X1]-X2)	does not affect the cell growth	4.86	–	–
Cc1ccc(N)cc1C(=O)N[C@H](C)c1cccc2ccccc12 [GRL0617, reference compound]	great cytotoxicity	–	–	–
CC(C)CC(NC(=O)C(CCCNC(=N)N)NC(=O)C(N)CO)C(=O)NC(CCCNC(=N)N)C(=O)NCC(=O)NCC(=O)Nc1nc(=S)c2[nH]cnc2[nH]1 (centres unmarked) [RG-6] (H-SRLRGG-X3; configuration not given here)	–	–	less cytotoxicity than 6-TG	lower than 6-TG
